We go through three molecules from publication PMC8993905, “Functional control of a 0.5 MDa TET aminopeptidase by a flexible loop revealed by MAS NMR” (Nature Communications, 2022).

SMILES strings stand for the structures.

The target in assay [1] is T1, TET2 (Pyrococcus horikoshii, UniProt O59196).
T1 construct: gene frvX; full length, 353 residues per subunit, pET41c in E. coli BL21(DE3), no tag mentioned (heat step, Resource Q, Superdex 200), 39 kDa subunit, 468 kDa homododecamer, two Zn per active site
The assay is described as follows: MAS NMR 1H-15N peak doubling (G92, D94, H323). It is filed as binding. As to conditions: active site; 50% (vol/vol) MPD, pH 7.6, ca. 28 °C; slow exchange.

Assay [2] addresses T2, TET2 (Pyrococcus horikoshii, UniProt O59196, H123F).
T2 construct: gene frvX; full length, 353 residues per subunit, pET41c in E. coli BL21(DE3), no tag mentioned (heat step, Resource Q, Superdex 200), 39 kDa subunit, 468 kDa homododecamer, two Zn per active site
The assay is described as follows: MAS NMR 1H-15N chemical-shift perturbation. It counts as binding. As to conditions: active site, non-covalent; isotope-labelled protein, ca. 28 °C.

Assay [3] addresses T1, TET2. Nature of the assay: MAS NMR chemical-shift perturbation. As to conditions: active site, non-covalent; isotope-labelled protein, ca. 28 °C. It is filed as binding.
Assay [4] concerns the target T1, TET2. Nature of the assay: H-Leu-pNA hydrolysis, absorbance at […] nm. It is filed as biochemical. The conditions noted are these: 6.4 mM H-Leu-pNA, 1, 5 or 20 mM histidine, pH 7.5, 50 °C.
The target in assay [5] is T3, TET2 (Pyrococcus horikoshii, UniProt O59196, H123Y).
T3 construct: gene frvX; full length, 353 residues per subunit, pET41c in E. coli BL21(DE3), no tag mentioned (heat step, Resource Q, Superdex 200), 39 kDa subunit, 468 kDa homododecamer, two Zn per active site
The assay is described as follows: H-Leu-pNA hydrolysis, absorbance at […] nm. It counts as biochemical. The conditions noted are these: 6.4 mM H-Leu-pNA, 1, 5 or 20 mM histidine, pH 7.5, 50 °C.

T1 sequence (O59196 whole entry): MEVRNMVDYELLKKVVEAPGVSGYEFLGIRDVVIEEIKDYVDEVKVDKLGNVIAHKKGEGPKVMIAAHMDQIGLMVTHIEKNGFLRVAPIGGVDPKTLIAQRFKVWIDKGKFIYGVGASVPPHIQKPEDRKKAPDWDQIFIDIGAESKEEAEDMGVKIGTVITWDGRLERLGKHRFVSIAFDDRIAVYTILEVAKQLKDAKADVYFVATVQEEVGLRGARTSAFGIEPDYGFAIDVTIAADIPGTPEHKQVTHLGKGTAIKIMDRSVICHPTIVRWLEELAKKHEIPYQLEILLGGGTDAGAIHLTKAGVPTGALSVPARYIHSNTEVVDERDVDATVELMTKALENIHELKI
T2 sequence (O59196 whole entry H123F): as the sequence (O59196 whole entry) above, with H123F counted along it
T3 sequence (O59196 whole entry H123Y): as the sequence (O59196 whole entry) above, with H123Y counted along it

For `CC(O)CC(C)(C)O` (centres unmarked) [2-methyl-2,4-pentanediol], on TET2 [1], the “MAS NMR 1H-15N peak doubling (G92, D94, H323)” value is 2-methyl-2,4-pentanediol (MPD), a common crystallization agent used also to obtain solid-state NMR samples, interacts. As for `CC(C)C[C@@H](N)[C@H](O)C(=O)N[C@H](C(=O)N[C@H](C(=O)N[C@@H](CC(=O)O)C(=O)O)C(C)C)C(C)C` [amastatin], the “MAS NMR 1H-15N chemical-shift perturbation” value on TET2 [2] is recorded as “We ensured that amastatin tightly binds to the H123F mutant”. Further, the “MAS NMR chemical-shift perturbation” value on TET2 [3] is recorded as “MAS NMR experiments reveal the chemical-shift perturbations induced by this tightly bound inhibitor”.

As to `N[C@@H](Cc1c[nH]cn1)C(=O)O` [histidine], the “activity with added free histidine” value is “abolishes the function of WT and mutant TET2” at TET2 [4]; “addition of free His not only does not increase the activity, but abolishes the function” at TET2 [5].
